Where a name gives a salt, the structure may show the parent alone.
How the values were obtained:
Assay type in all cases: in vivo, human
[1] = test system: aphtha; assay: Case reports: rinse with quinoline derivative solution followed by chlorhexidine rinse in patients with aphthae
From the text: (§1) Hydroxychloroquine (HCQ) was obtained from Sanofi-Syntelabo, Inc. New York USA, quinine (Q) and quinidine sulfate were obtained from Rakah, Holon, Israel. The compounds were mixed with tap water. Chlorhexidine was obtained from LACER S.A., Barcelona, Spain.
A person, generally in good health, presented a most painful, distressing major aphtha of approximately 1 cm diameter on the ventro-lateral tongue. They had suffered the presence of such lesions for several years (recurrences of 6 to 8 episodes per year). The current lesion had been present for about one week. During examination 2 lymph nodes were palpated in the floor of mouth, probably due to a secondary infection. They started to apply a rinse with 3.72 mg/cc HCQ solution (for 3 to 5 minutes) followed by a rinse with 0.12% chlorhexidine alcohol free solution (for about 1 minute), 3 times a day. Two days later, the patient was totally free of pain and the size of the aphtha diminished to about 7 mm diameter.
A person, presented a painful minor aphtha on the ventro-lateral part of the tongue. They reported its appearance about 1 week ago. In the past, frequent episodes of minor aphthae had occurred every 2 months. They started to rinse with 10 ml of quinine sulfate Solution 3 mg/cc (for 3 to 5 minutes) followed by a rinse with 0.12% chlorhexidine alcohol free solution (for about 1 minute), 3 times a day.

[2] = test system: aphtha (canker sores); assay: Case reports: mouth rinses with a quinoline derivative solution in patients with aphthae
From the text: as §1
A person, generally in good health, reported the presence of canker sores for several years (periodic recurrences of 3 to 4 episodes per year). […] The patient was seen five days after the appearance of the painful aphtha. They started oral rinses with 10 ml of hydroxychloroquine (HCQ) solution, 3.7 mg/ml, three times a day, each rinse for 3 to 5 min. […] They continued to rinse for about a week. No additional aphthous lesions appeared during 8 weeks of follow-up.
A person, in otherwise general good health, came with two painful major aphthae, one of 12 mm diameter on the left side of the lower lip mucosa and the second on the right latero-ventral side of the tongue, about 8 mm diameter. They reported the presence of recurrent aphthous lesions since they were […]. During the last year, they continuously suffered from recurrent episodes of major aphthae, with virtually no aphtae-free intervals. Each episode of aphthae usually lasted for 3 to 6 weeks. They started oral rinses with 10 ml of HCQ solution, 3.7 mg/ml, three times a day, each rinse for 3 to 5 min. […] Concomitantly, 2 new lesions of minor aphthae, 3 mm in diameter each, were seen, one on the left side of the upper lip mucosa and the other on the ventro-anterior side of the tongue. […] In total, they rinsed with the HCQ solution for 20 days.
A child, in otherwise general good health, reported the presence of recurrent aphthous lesions of different sizes for the last 2 years. The last episode had been about 3 months before examination. The lesions had disappeared within 2 weeks after using different conventional treatments. At clinical examination, one aphtha of about 3 mm diameter was found on the lower lip mucosa and another one about 6 mm diameter was found on the upper lip mucosa. Both lesions were painful. They started rinsing with 10 ml of HCQ solution, 2.5 mg/ml, three times a day, each rinse for 3 to 5 min. […] They reported to be free of any pain already after 24 hours from the start of rinsing. […], therefore, was able to eat everything. The patient was advised to continue rinsing with 10 ml of hydroxychloroquine (HCQ) solution, 3.7 mg/ml, three times a day, each rinse for 3 to 5 min for 7 additional days. […] They still continued with the rinses for 5 additional days, as recommended.
A person reported suffering from recurrent episodes of canker sores for many years, with 2 to 3 episodes per year. The last episode had occurred about 6 months before examination. They were diagnosed with diabetes mellitus, so that use of steroidal modalities for treatment of their aphthous lesions was contraindicated. […] They started rinsing with 10 ml of HCQ solution, 1.2 mg/ml, three times a day, each rinse for 3 to 5 min. After 24 hours from start of rinses they were free of any pain and was able to eat everything. […] They remained aphthae-free for 7 months.
A person, generally in good health, reports the presence of canker sores since childhood with about 8 to 10 recurrences per year. At clinical examination a minor painful aphtha was present on the mucosa of the lower lip. The ulcer was about 4-5 mm in diameter and was present for 8 days. […] They started to rinse with 10 ml of hydroxychloroquine (HCQ) solution, 1.2 mg/ml, three times a day, each rinse for 3 to 5 min.
A person presented a painful minor aphtha of about 3 mm in diameter in the right vestibulum of the lower jaw adjacent to the first molar. They reported the presence of pain and inconvenience for 2 days. In the past, they had experienced recurrences of such lesions every 3 to 4 months. They started to rinse with 10 ml of 0.085 mg/ml quinine solution for 3 to 5 minutes, about 5 to 7 times a day. […]

[3] = test system: oral aphthous stomatitis and oral mucositis; assay: General statements on treating oral aphthous stomatitis and oral mucositis in patients
From the text: In experiments carried out with particular preferred compounds of the invention, the pain caused by ulcerative lesions disappeared often within hours, and the ulcers and other symptoms disappeared usually within days. For example, patients with life-long recurrent aphthae problems achieved quick relief of pains caused by aphthae ulcers after rinsing their mouth with aqueous solutions comprising said compounds. The effect is often enhanced when said quinoline derivative is used together with an antiseptic.
Quinine at levels up to 83 ppm is approved by FDA for use in beverages as a flavoring agent.
In other preferred embodiment of this invention, oral mucositis is treated by a quinine (Q) salt in solution or suspension, which is used several times a day for rinsing mouth without swallowing, followed by rinsing with chlorhexidine solution. The concentration of Q is preferably about 0.083 mg/ml, and chlorhexidine solution has preferably a concentration from 0.05% to 0.2%. The rinsing with each of the two components is preferably performed 3-5 times a day. Said Q solution may comprise Q dihydrochloride, Q hydrochloride, Q sulfate, and other Q salts. Said Q suspension may, for example, comprise Q sulfate. Stereoisomers of quinine and their salts, such as quinidine sulfate, have been also found active.

[4] = test system: erosive lichen planus; assay: Case report: rinse and swallow of quinine solution in a patient with erosive lichen planus
From the text: as §1
A person presented diffuse erosions/ulcerations of the buccal, labial and lingual mucosae that were present for at least 6 months. They complained of pain and difficulty to eat and speak. The erosive/ulcerative lesions were clinically specific for erosive lichen planus. They started to rinse (for 5 to 10 min) and swallow about 10- 20 ml of 0.085 mg/ml quinine solution, 5 to 7 times a day. […] They were able to maintain a stable asymptomatic condition of their lichen planus by means of quinine solution during about 1 year follow-up period.

[5] = Example 2: HCQ solution 3.7 mg/ml
[6] = Example 2: HCQ solution 3.7 mg/ml, three times a day
[7] = Example 3: HCQ solution 2.5 mg/ml, three times a day
[8] = Example 7: 0.085 mg/ml quinine solution, rinse and swallow

CCN(CCO)CCCC(C)Nc1ccnc2cc(Cl)ccc12 (centres unmarked) [HCQ, Hydroxychloroquine]
diameter of the aphtha two days later (initially approximately 1 cm) ([1]; Example 8: 3.72 mg/cc HCQ rinse followed by 0.12% chlorhexidine rinse, 3 times a day): about 7 mm
state of the aphtha after 2 additional days of treatment ([1]; Example 8: 3.72 mg/cc HCQ rinse followed by 0.12% chlorhexidine rinse, 2 + 2 days): completely disappeared
time until totally free of pain ([1]; Example 8: person, major aphtha approx. 1 cm, probable secondary infection, 3.72 mg/cc HCQ rinse followed by 0.12% chlorhexidine rinse, 3 times a day): Two
follow-up without additional aphthous lesions ([2]; Example 1: HCQ solution 3.7 mg/ml, rinsed about a week): 8 weeks
state of the aphtha 24 hours after start of treatment ([2]; Example 1: minor aphtha, HCQ solution 3.7 mg/ml, three times a day): almost disappeared
time after start of treatment until free of any pain ([2]; Example 1: person, minor aphtha, rinses 10 ml HCQ solution 3.7 mg/ml, three times a day, 3 to 5 min): Twenty-four
new minor aphtha (3 mm) on the lip after 4 more days of rinsing [2, 5]: diminished significantly in its size
new minor aphtha (3 mm) on the tongue after 4 more days of rinsing [2, 5]: disappeared
pain from the two new minor aphthous lesions [2, 5]: did not cause any pain whatsoever
follow up with no new aphthous lesions ([2]; Example 2: HCQ solution 3.7 mg/ml, rinsed 20 days in total): 3 months
aphtha of the tongue (about 8 mm), 5 days later [2, 6]: completely disappeared
major aphtha of the lower lip (12 mm), 5 days later [2, 6]: decreased in size to about half its original size
major aphtha on the lower lip mucosa after 6 additional days ([2]; Example 2: HCQ solution 3.7 mg/ml, 5 + 6 days, left a pronounced scar): disappeared completely
time after start of rinses until pain completely disappeared ([2]; Example 2: person, two major aphthae, 10 ml HCQ solution 3.7 mg/ml, three times a day, 3 to 5 min): 24 h
diameter of aphtha on the lower lip after 5 days (initially about 3 mm) [2, 7]: about 1 mm
time from start of rinsing until free of any pain [2, 7]: 24 h
follow up after cessation of rinses without new aphthae ([2]; Example 3: HCQ solution 2.5 then 3.7 mg/ml): 5 weeks
time until aphtha on the lower lip disappeared completely after continuing with 3.7 mg/ml ([2]; Example 3: after 5 days at 2.5 mg/ml, HCQ solution 3.7 mg/ml three times a day): ≤ 2 days
lesion on upper lip (about 6 mm) after 5 days ([2]; Example 3: child, 10 ml HCQ solution 2.5 mg/ml, three times a day, 3 to 5 min): almost disappeared
aphthae-free period ([2]; Example 4: HCQ solution 1.2 mg/ml): 7 months
state of the aphtha after 7 days of rinsing ([2]; Example 4: HCQ solution 1.2 mg/ml, three times a day): almost disappeared
time from start of rinses until free of any pain ([2]; Example 4: person, diabetes mellitus, major aphthous lesion about 8 mm, 10 ml HCQ solution 1.2 mg/ml, three times a day): 24 h
follow up with no new aphthae ([2]; Example 5: HCQ solution 1.2 mg/ml): 4 months
time until aphtha completely disappeared ([2]; Example 5: HCQ solution 1.2 mg/ml, three times a day): three
time of rinses until no pain ([2]; Example 5: person, minor aphtha 4-5 mm, 10 ml HCQ solution 1.2 mg/ml, three times a day): one

C=C[C@H]1C[N@@]2CC[C@H]1C[C@@H]2[C@@H](O)c1ccnc2ccc(OC)cc12 [quinidine sulfate]
activity in treating oral mucositis ([3]; general statement): active

C=C[C@H]1C[N@@]2CC[C@H]1C[C@H]2[C@H](O)c1ccnc2ccc(OC)cc12 [quinine sulfate]
time until pain decreased significantly ([1]; Example 9: person, minor aphtha, 10 ml quinine sulfate solution 3 mg/cc followed by 0.12% chlorhexidine rinse, 3 times a day): ≤ 24 h
time until all the inconvenience disappeared ([1]; Example 9: quinine sulfate solution 3 mg/cc followed by 0.12% chlorhexidine rinse, 3 times a day): ≤ 48 h

C=C[C@H]1C[N@@]2CC[C@H]1C[C@H]2[C@H](O)c1ccnc2ccc(OC)cc12 [quinine]
erosive/ulcerative lesions after about 4 weeks [4, 8]: marked healing
symptoms of the lesions after about 4 weeks [4, 8]: completely asymptomatic
follow-up period with stable asymptomatic condition of lichen planus ([4]; Example 7: maintained by quinine solution): about 1 year
pain and masticatory function after 3 days ([4]; Example 7: person, rinse (5 to 10 min) and swallow 10-20 ml of 0.085 mg/ml quinine solution, 5 to 7 times a day): significant amelioration
outcome in patients with major aphtha accompanied by a secondary infection ([3]; mouth rinsing with 0.083 mg/ml of quinine, and optionally chlorhexidine, several minutes, several times a day): relief of pains and healing
time until ulcer healed completely ([2]; Example 6: 0.085 mg/ml quinine solution, 5 to 7 times a day): ≤ 4 days
time until pain and inconvenience disappeared ([2]; Example 6: person, minor aphtha about 3 mm, 10 ml 0.085 mg/ml quinine solution, 3 to 5 minutes, 5 to 7 times a day): 2 days
follow-up with no further recurrences ([2]; Example 10: 0.085 mg/ml quinine solution): about 6 months
time until disappearance of the aphtha ([2]; Example 10: 0.085 mg/ml quinine solution, rinse and swallow): about 4 days
time until free of any symptoms ([2]; Example 10: person, minor aphtha about 4 mm, 10 ml 0.085 mg/ml quinine solution, about 5 times per day, rinse 3 to 5 min and swallow): ≤ 24 h
